Results on two compounds are retold here after patent US8932626B2, “Felbinac-containing transdermally absorbable preparation” (Teikoku Seiyaku Co., Ltd., priority 2009, dated 2015).

Data set [1] can be described thus: In vitro rat skin permeability test (Test Example 1). The method, then: The rat abdominal skin was exfoliated, the dermis side of the skin was directed to a side of a receptor layer, and its inside was filled with phosphate buffered saline. Water kept at 37° C. was circulated in a water jacket.
The conditions of data set [2]: background art statement; cited from earlier work.

Molecules are shown by their SMILES.

As for `CC(C(=O)O)c1cccc(C(=O)c2ccccc2)c1` (stereo not drawn) [ketoprofen], in data set [1] (Comparative Study (2), FIG. 3, patch with ketoprofen and lidocaine (Comparative Example 4) versus only ketoprofen (Comparative Example 3)), the “releasing of ketoprofen (permeated amount through excised rat skin)” value was “inhibited significantly”. The “releasing effect of the anti-inflammatory analgesic obtained by formulating lidocaine” value in data set [1] (summary of Comparative Studies (1) to (3)) was “not observed”. Consider `O=C(O)Cc1ccc(-c2ccccc2)cc1` [Felbinac], for which, in data set [2], the “solubility in various solvents” value is reported as “very low”.
